Data from ChEMBL document CHEMBL2086270, “Rational Design, Synthesis, and SAR of a Novel Thiazolopyrimidinone Series of Selective PI3K-beta Inhibitors” (ACS Med Chem Lett, 2012).

Experiments:
[1] = target: T1, Phosphatidylinositol 4,5-bisphosphate 3-kinase catalytic subunit beta isoform (Homo sapiens, UniProt P42338); test: Inhibition of PI3K beta by continuous TR-FRET assay
[2] = target: Phosphatidylinositol 4,5-bisphosphate 3-kinase catalytic subunit alpha isoform (Homo sapiens, UniProt P42336); test: Inhibition of PI3K alpha by continuous TR-FRET assay
Chain of Phosphatidylinositol 4,5-bisphosphate 3-kinase catalytic subunit alpha isoform (P42336 whole entry, canonical isoform): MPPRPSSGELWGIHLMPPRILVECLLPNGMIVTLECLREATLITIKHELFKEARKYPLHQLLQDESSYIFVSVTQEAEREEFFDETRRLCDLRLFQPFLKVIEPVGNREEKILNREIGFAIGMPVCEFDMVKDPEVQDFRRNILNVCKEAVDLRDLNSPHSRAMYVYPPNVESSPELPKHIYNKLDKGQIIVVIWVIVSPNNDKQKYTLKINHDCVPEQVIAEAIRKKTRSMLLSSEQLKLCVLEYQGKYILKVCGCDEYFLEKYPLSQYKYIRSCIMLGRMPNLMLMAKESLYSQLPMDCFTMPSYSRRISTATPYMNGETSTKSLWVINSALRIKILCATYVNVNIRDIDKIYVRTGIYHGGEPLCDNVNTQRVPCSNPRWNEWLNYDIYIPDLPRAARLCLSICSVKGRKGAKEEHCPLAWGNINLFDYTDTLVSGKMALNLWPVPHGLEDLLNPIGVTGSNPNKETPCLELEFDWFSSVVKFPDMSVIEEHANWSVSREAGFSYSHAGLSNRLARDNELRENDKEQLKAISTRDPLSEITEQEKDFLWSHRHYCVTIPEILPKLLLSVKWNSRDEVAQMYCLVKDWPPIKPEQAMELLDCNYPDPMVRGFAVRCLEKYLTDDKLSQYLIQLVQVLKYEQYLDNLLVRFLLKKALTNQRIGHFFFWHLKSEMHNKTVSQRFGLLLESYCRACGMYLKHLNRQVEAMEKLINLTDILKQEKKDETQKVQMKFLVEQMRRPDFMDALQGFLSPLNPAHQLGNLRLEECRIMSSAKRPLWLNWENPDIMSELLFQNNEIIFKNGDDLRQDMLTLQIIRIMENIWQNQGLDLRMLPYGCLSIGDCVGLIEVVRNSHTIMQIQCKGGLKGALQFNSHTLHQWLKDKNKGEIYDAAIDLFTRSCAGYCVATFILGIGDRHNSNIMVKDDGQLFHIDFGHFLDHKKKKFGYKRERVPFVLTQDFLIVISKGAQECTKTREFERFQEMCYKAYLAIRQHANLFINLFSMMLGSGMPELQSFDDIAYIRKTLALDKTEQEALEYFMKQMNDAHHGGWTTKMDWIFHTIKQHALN

[3] = target: Phosphatidylinositol 4,5-bisphosphate 3-kinase catalytic subunit gamma isoform (Homo sapiens, UniProt P48736); test: Inhibition of PI3K gamma by continuous TR-FRET assay
Chain of Phosphatidylinositol 4,5-bisphosphate 3-kinase catalytic subunit gamma isoform (P48736 whole entry, canonical isoform): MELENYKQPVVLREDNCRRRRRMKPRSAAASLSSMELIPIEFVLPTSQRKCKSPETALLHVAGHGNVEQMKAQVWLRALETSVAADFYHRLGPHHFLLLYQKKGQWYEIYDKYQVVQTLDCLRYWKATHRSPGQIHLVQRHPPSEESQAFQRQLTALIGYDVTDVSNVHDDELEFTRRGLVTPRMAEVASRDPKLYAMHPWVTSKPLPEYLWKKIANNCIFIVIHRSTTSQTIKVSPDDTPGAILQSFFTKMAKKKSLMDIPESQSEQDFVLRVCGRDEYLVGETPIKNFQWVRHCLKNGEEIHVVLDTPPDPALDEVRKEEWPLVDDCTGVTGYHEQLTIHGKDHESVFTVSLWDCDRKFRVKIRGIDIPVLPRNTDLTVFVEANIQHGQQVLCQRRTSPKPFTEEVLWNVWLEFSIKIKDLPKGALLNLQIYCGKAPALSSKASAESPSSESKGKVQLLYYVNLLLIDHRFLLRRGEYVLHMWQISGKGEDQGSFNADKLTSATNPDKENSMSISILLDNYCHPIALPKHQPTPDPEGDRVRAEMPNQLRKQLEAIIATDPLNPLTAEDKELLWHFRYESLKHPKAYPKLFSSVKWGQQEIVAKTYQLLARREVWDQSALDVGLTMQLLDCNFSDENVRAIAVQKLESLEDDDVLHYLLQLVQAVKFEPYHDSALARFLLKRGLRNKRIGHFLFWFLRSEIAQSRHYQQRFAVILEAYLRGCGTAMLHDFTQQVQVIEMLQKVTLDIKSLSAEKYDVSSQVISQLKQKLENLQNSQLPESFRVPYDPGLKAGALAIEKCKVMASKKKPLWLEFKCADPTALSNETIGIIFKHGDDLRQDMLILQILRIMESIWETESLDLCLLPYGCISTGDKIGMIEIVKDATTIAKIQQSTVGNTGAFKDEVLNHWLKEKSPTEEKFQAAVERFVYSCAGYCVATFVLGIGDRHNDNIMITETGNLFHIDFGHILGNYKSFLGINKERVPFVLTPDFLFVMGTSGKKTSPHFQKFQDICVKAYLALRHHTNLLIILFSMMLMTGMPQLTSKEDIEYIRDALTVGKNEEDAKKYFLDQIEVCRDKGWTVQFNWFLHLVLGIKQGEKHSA

[4] = target: T2, Phosphatidylinositol 4,5-bisphosphate 3-kinase catalytic subunit delta isoform (Homo sapiens, UniProt O00329); test: Inhibition of PI3K delta by continuous TR-FRET assay
T2 sequence (O00329 whole entry): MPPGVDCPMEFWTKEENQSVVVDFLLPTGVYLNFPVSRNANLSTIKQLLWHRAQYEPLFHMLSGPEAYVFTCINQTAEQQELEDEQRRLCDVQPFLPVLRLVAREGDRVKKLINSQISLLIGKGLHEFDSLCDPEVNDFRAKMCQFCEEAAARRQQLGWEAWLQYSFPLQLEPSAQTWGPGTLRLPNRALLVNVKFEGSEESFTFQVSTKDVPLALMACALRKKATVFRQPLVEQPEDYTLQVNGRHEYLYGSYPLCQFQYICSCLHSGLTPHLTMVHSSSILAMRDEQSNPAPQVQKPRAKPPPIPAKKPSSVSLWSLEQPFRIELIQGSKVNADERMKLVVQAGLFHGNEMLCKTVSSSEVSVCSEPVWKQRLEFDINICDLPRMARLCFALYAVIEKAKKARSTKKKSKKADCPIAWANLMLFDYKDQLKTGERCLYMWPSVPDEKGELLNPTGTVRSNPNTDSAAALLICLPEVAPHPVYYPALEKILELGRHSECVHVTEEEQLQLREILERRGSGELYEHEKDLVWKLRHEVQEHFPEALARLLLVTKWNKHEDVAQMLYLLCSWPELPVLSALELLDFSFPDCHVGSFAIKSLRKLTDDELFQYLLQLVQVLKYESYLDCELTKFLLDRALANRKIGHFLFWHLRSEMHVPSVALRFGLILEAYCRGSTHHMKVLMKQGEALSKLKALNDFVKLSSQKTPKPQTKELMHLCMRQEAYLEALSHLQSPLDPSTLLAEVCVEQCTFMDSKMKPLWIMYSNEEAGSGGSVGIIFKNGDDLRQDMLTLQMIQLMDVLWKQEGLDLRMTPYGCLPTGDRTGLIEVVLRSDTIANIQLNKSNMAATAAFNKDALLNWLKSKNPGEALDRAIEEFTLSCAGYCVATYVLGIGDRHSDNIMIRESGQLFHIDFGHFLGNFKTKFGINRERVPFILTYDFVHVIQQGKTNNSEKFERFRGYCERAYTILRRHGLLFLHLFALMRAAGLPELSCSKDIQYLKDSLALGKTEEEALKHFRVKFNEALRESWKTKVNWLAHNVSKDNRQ

[5] = target: T1, Phosphatidylinositol 4,5-bisphosphate 3-kinase catalytic subunit beta isoform; test: Inhibition of PI3K beta in human PTEN-deficient MDA-MB-468 cells assessed as inhibition of Akt Ser473 phosphorylation; assay type: cell-based
MDA-MB-468 = test: Antiproliferative activity against PTEN-deficient human MDA-MB-468 cells; assay type: functional
[6] = Clearance in CD mouse at 0.3 mg/kg, iv; assay type: ADME, organism-based; parameters: dose 0.3 mg/kg, route intravenous; details: in vivo
[7] = Oral bioavailability in CD mouse at 100 mg/kg; assay type: ADME, organism-based; details: in vivo
[8] = Half life in CD mouse at 0.3 mg/kg, iv; assay type: ADME, organism-based; parameters: dose 0.3 mg/kg, route intravenous; details: in vivo
[9] = Volume of distribution at steady state in CD mouse at 0.3 mg/kg, iv; assay type: ADME, organism-based; parameters: dose 0.3 mg/kg, route intravenous; details: in vivo, read-out: Vdss
Mus musculus = test: Dose normalized AUC in CD mouse at 100 mg/kg, po; assay type: ADME, organism-based; parameters: dose 100 mg/kg, route oral; details: in vivo

T1 sequence (P42338 whole entry, canonical isoform): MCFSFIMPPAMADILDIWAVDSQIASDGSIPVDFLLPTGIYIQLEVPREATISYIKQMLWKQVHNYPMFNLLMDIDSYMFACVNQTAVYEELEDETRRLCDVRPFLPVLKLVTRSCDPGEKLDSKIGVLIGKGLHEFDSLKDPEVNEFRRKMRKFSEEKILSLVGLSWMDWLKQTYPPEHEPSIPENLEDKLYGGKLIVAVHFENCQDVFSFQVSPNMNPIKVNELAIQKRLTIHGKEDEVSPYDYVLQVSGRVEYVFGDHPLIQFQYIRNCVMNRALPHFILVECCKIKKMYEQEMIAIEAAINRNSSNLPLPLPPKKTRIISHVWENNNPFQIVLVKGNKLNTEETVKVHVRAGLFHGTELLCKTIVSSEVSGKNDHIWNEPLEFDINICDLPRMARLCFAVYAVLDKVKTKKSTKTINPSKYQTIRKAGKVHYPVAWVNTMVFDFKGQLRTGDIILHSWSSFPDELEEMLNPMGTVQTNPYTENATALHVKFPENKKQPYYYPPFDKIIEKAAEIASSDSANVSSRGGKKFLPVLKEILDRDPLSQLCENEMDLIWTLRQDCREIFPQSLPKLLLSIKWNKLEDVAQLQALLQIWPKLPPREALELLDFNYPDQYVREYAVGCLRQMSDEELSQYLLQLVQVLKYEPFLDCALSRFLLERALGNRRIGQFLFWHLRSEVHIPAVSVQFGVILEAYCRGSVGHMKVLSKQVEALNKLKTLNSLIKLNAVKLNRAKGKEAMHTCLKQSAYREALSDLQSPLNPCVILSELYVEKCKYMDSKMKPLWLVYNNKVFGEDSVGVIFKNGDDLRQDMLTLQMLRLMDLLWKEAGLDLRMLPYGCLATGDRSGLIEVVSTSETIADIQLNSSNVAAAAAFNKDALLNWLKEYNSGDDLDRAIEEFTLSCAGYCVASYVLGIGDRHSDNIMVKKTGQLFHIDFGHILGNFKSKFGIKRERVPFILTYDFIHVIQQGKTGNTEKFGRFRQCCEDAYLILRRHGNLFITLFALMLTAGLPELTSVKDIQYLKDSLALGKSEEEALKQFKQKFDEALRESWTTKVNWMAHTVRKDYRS

| IC50 [1] | IC50 [2] | IC50 [3] | IC50 [4] | EC50 [5] | GI50 (MDA-MB-468) | clearance [6] | bioavailability [7] | half-life [8] | Vd [9] | AUC/dose (Mus musculus) | SMILES |
| --- | --- | --- | --- | --- | --- | --- | --- | --- | --- | --- | --- |
| 8 nM | 50000 nM | > 6300 nM | 500 nM | – | – | – | – | – | – | – | Cc1c(Cl)cccc1Cn1c(=O)[nH]c(=O)c2sc(N3CCOCC3)nc21 |
| 50 nM | > 3200 nM | 4000 nM | 500 nM | – | – | – | – | – | – | – | Cc1c(Cn2c(-c3ccccc3)nc(=O)c3sc(N4CCOCC4)nc32)cccc1C(F)(F)F |
| 0.3 nM | 1600 nM | 400 nM | 10 nM | 6 nM | 21 nM | – | – | – | – | – | COc1nc(=O)c2sc(N3CCOCC3)nc2n1Cc1cccc(Cl)c1C |
| 0.5 nM | 1300 nM | 1000 nM | 16 nM | 9 nM | 43 nM | 48.6 mL/min/kg | 54% | 45 min | 2.6 L/kg | 192 ng/(hr.mL.mg.kg) | Cc1c(Cn2c(C3CC3)nc(=O)c3sc(N4CCOCC4)nc32)cccc1C(F)(F)F |
| 3 nM | 4000 nM | 1600 nM | 63 nM | – | – | – | – | – | – | – | Cc1c(Cn2cnc(=O)c3sc(N4CCOCC4)nc32)cccc1C(F)(F)F |
| 0.2 nM | 630 nM | 250 nM | 3 nM | – | – | – | – | – | – | – | Cc1c(Cn2c(CO)nc(=O)c3sc(N4CCOCC4)nc32)cccc1C(F)(F)F |
| 160 nM | 2500 nM | 7900 nM | > 790 nM | – | – | – | – | – | – | – | O=c1ncn(Cc2ccccc2Cl)c2nc(N3CCOCC3)sc12 |
| 10 nM | 1000 nM | 1300 nM | 79 nM | – | – | – | – | – | – | – | O=c1ncn(Cc2cccc(Cl)c2Cl)c2nc(N3CCOCC3)sc12 |
| 320 nM | 7900 nM | 6300 nM | 2000 nM | – | – | – | – | – | – | – | O=c1ncn(Cc2ccccc2)c2nc(N3CCOCC3)sc12 |
| 5 nM | 2000 nM | > 3200 nM | 50 nM | – | – | – | – | – | – | – | Cc1c(Cl)cccc1Cn1c(=S)[nH]c(=O)c2sc(N3CCOCC3)nc21 |
| 790 nM | 3200 nM | 4000 nM | 2500 nM | – | – | – | – | – | – | – | O=c1ncn(Cc2ccsc2Cl)c2nc(N3CCOCC3)sc12 |
| 3 nM | 2500 nM | 2500 nM | 40 nM | – | – | – | – | – | – | – | Cc1c(Cl)cccc1Cn1cnc(=O)c2sc(N3CCOCC3)nc21 |
| 0.5 nM | > 4000 nM | 1300 nM | 13 nM | 16 nM | 23 nM | – | – | – | – | – | CCc1nc(=O)c2sc(N3CCOCC3)nc2n1Cc1cccc(C(F)(F)F)c1C |
| 79 nM | > 3200 nM | > 790 nM | 320 nM | – | – | – | – | – | – | – | O=c1ncn(Cc2cccc(Cl)c2)c2nc(N3CCOCC3)sc12 |
| 3 nM | > 2500 nM | > 7900 nM | 160 nM | – | – | – | – | – | – | – | Cc1c(Cn2c(CN)nc(=O)c3sc(N4CCOCC4)nc32)cccc1C(F)(F)F |
| 0.1 nM | 500 nM | 250 nM | 2 nM | 6 nM | 8 nM | 29.4 mL/min/kg | 21% | 114 min | 3.35 L/kg | 264 ng/(hr.mL.mg.kg) | Cc1c(Cl)cccc1Cn1c(CO)nc(=O)c2sc(N3CCOCC3)nc21 |
| 3 nM | 2500 nM | 2000 nM | 63 nM | – | – | – | – | – | – | – | Cc1c(Cn2c(Cc3ccccc3)nc(=O)c3sc(N4CCOCC4)nc32)cccc1C(F)(F)F |
| 25 nM | 2500 nM | 2500 nM | 250 nM | – | – | – | – | – | – | – | Cc1ccccc1Cn1cnc(=O)c2sc(N3CCOCC3)nc21 |
| 790 nM | > 2000 nM | 3200 nM | 1000 nM | – | – | – | – | – | – | – | O=c1ncn(CCc2ccccc2)c2nc(N3CCOCC3)sc12 |
| 0.05 nM | 400 nM | 160 nM | 2 nM | – | – | – | – | – | – | – | Cc1c(Cl)cccc1Cn1c(SCC(=O)O)nc(=O)c2sc(N3CCOCC3)nc21 |
| 0.5 nM | 2000 nM | 1000 nM | 10 nM | 19 nM | 32 nM | – | – | – | – | – | Cc1c(Cl)cccc1Cn1c(C)nc(=O)c2sc(N3CCOCC3)nc21 |
| 400 nM | > 4000 nM | 5000 nM | 500 nM | – | – | – | – | – | – | – | CC(c1ccccc1)n1cnc(=O)c2sc(N3CCOCC3)nc21 (stereo not drawn) |
| 0.3 nM | 2000 nM | 2500 nM | 10 nM | – | – | – | – | – | – | – | CSc1nc(=O)c2sc(N3CCOCC3)nc2n1Cc1cccc(Cl)c1C |
| 0.2 nM | 250 nM | 500 nM | 3 nM | 3 nM | 26 nM | – | – | – | – | – | Cc1c(Cl)cccc1Cn1c(N)nc(=O)c2sc(N3CCOCC3)nc21 |
